For one data set, the target named is T1, mouse PXR (mPXR) (Mus musculus, UniProt O54915).
T1 construct: expressed in transfected cells; host or cells: 293T cells
T1 sequence (O54915 1-431): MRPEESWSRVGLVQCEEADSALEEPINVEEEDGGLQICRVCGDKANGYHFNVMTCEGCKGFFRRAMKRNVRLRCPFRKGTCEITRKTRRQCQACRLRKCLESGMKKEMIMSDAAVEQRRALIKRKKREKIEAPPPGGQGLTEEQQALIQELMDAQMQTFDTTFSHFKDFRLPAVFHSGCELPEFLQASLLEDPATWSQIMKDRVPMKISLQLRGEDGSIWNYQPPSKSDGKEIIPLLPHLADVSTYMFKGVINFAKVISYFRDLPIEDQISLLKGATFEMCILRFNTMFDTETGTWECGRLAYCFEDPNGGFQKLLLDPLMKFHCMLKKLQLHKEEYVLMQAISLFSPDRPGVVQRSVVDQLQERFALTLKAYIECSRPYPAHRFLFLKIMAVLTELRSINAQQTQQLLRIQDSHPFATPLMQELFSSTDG
Briefly: In vitro transcription assay, PXR reporter gene (MRP2 luciferase) with mPXR expression plasmid in 293T cells. The data set is classed as cell-based.

Another data set has as its system Tnf-α mRNA expression. The experiment in a line: KDO2-lipid A gut mucosal endotoxemia model with oral IPA, Tnf-α qPCR in jejunum apical enterocytes. The data set is classed as in vivo. The conditions noted are these: KDO2 200 μg/mice, oral IPA 20 mg/kg. The procedure:
2.0 μg of total RNA extracted from pooled apical enterocytes with TRIzolR (Invitrogen), were reverse transcribed with random hexamer primers and SuperScript™ III-RT enzyme (Invitrogen). Quantitative PCR (qPCR) reactions using TaqMan universal PCR master mix and TaqMan probes containing FAM as the 5′ reporter fluorochrome and tetramethylrhodamine (MGB) as the 3′ quencher fluorochrome, were performed in triplicate for each sample and analyzed on the ABI Prism 7900HT system. […]
For indomethacin induced mouse jejunitis model, a protocol published by Ettarh and Carr was modified by using a single intraperitoneal dose of indomethacin to reduce the toxicity in Pxr^−/− mice (17). […] Weights of individual jejunum sections were measured for quantitation of enteropooling (intestinal weight/length in mg/cm). […]

Data set [1] deals with gut permeability to FITC-dextran. The experiment in a line: In vivo FITC-dextran gut permeability assay in germ free mice after oral IPA. To be noted: germ free (SWGF) mice; oral IPA 20 mg/kg, four consecutive days. On the procedure:
Age and sex-matched mice were orally administered with 0.6 mg/g body weight of an 80 mg/ml solution of FITC-dextran (FD4, Sigma). 5 h later, retro-orbital blood was collected from each mouse. Serum was prepared by allowing the blood to clot by leaving it undisturbed overnight at 4° C. and then subsequently centrifuged at 3000 rpm for 20 minutes. Dilutions of FITC-dextran in PBS were used as a standard curve. Absorption of 50 μl serum was measured at microplate reader with excitation and emission filters set at 490 and 530 nm, respectively (38).

Protocol for mouse PXR (mPXR): These assays were performed in 293T cells as previously published (33). In brief, transient transfection by lipofectamine (Invitrogen) were carried out in 293T cells with plasmids expressing human PXR (hPXR), mouse PXR (mPXR), GAL4-FXR, GAL4-LXR, GAL4-PPARγ and mouse CAR (mCAR) with respective reporter plasmids (Tk-MRP2-luciferase, Tk-MH100-luciferase, CYP2B10-luciferase) and Renilla. […] The cells were harvested in passive lysis buffer (Promega) and luciferase activity was detected using the dualluciferase reporter assay system from Promega in 20 μl of cell lysate using the Turner Biosystems 20/20 n Luminometer. Assays were performed at least two independent times each in triplicates.

For the compound `O=C(O)CCc1c[nH]c2ccccc12` [IPA, indole-3-propionic acid], at mouse PXR (mPXR), the half-maximal effective concentration (EC50) came out at 550 nM and the “Emax, mPXR transcription assay” value turned out to be 18.84 fold over control. For the same compound, the “Decrease of epithelial Tnf mRNA expression” value with Tnf-α mRNA expression (Pxr+/+ mice) turned out to be 3.73 fold. Moreover, the “Decrease of epithelial Tnf mRNA expression” value in the data set with Tnf-α mRNA expression (Pxr−/− mice) is 1.72 fold. Moreover, in data set [1], the “Gut permeability to FITC-dextran” value was “decreased gut permeability to FITC-dextran”.
